Reference: paper PMC3260207, “Site-Directed Mutations and the Polymorphic Variant Ala160Thr in the Human Thromboxane Receptor Uncover a Structural Role for Transmembrane Helix 4” (PLoS ONE, 2012)
Where a chain is given by its changes, count along the chain named.

Assays:
Assay in all cases: Saturation radioligand binding with [3H] SQ 29,548, membranes
Conditions in all cases: picomoles of TP per milligram of total membrane protein, mean ± S.E
[1] = molecular target: T1, TP A160V/F115A double mutant (Homo sapiens, UniProt P21731, A160V/F115A); design: expressed in transfected cells; host or cells: COS-1 cells (membranes), transient, pMT4
T1 sequence (P21731 1-343 F115A/A160V): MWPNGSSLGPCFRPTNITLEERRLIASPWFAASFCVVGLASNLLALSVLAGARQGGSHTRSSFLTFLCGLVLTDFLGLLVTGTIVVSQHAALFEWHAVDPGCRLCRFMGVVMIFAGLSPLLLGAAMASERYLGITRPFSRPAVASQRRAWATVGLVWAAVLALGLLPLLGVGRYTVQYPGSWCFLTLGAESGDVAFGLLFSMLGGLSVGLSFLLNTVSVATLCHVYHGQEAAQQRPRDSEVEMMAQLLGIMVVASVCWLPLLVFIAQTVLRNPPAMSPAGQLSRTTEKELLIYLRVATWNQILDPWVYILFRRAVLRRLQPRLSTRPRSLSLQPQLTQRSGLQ
Description: Amino acid substitutions were introduced into the synthetic TPα gene carried by the expression vector pMT4 as described previously, [29]. DNA sequences of all the mutated genes were verified by automated DNA sequencing. To minimize variations in transfection efficiency, the total amount transfected DNA was kept constant in all cases at 1 µg of DNA per 7×10^5 cells. The wild type TP or mutant genes were expressed in COS-1 cells using a DEAE-dextran based transient transfection method, [29], and in HEK293T cells using lipofectamine 2000 (Invitrogen). Except unless specified, the membranes prepared from COS-1 cells were used for radioligand binding assays and immunoblots. […] The protein concentration in the resuspended membrane pellet was determined using a modified DC protein assay kit from Bio-Rad Laboratories (Hercules, CA).
These were carried out in Buffer C for 60 min at room temperature, using 2 to 20 µg of membrane protein and different concentrations of [^3H] […] Filter-bound radioactivity was measured using a liquid scintillation counter. Equilibrium dissociation constants (Kd) were determined from saturation isotherms using PRISM software version 5.0 (GraphPad Software Inc, San Diego, CA, USA). The Ki values were calculated from the IC50, using the equation of Cheng and Prusoff by PRISM software version 5.0.

[2] = molecular target: T2, TP F114A mutant (Homo sapiens, UniProt P21731, F114A)
T2 construct: expressed in transfected cells; HEK293T (calcium assays)
T2 sequence (P21731 1-343 F114A): T1 sequence (P21731 1-343 F115A/A160V) with F114A, A115F, V160A
Description: (§1) Amino acid substitutions were introduced into the synthetic TPα gene carried by the expression vector pMT4 as described previously, [29]. DNA sequences of all the mutated genes were verified by automated DNA sequencing. To minimize variations in transfection efficiency, the total amount transfected DNA was kept constant in all cases at 1 µg of DNA per 7×10^5 cells. The wild type TP or mutant genes were expressed in COS-1 cells using a DEAE-dextran based transient transfection method, [29], and in HEK293T cells using lipofectamine 2000 (Invitrogen). Except unless specified, the membranes prepared from COS-1 cells were used for radioligand binding assays and immunoblots. For intracellular calcium determination assays and immunofluorescence imaging, HEK293T cells were used. For transient transfections of HEK293T cells using the plasmid pMT4, lipofectamine 2000 (Invitrogen) mediated transfection was used as described by the manufacturer. Membranes were prepared using Buffers A and B and as described previously, [29]. The protein concentration in the resuspended membrane pellet was determined using a modified DC protein assay kit from Bio-Rad Laboratories (Hercules, CA).
(§2) These were carried out in Buffer C for 60 min at room temperature, using 2 to 20 µg of membrane protein and different concentrations of [^3H] […] Binding of [^3H] […] Competition binding assays were performed using 4 nM [^3H] […] Binding was terminated by filtering under vacuum on GF/A filters (Millipore). Filter-bound radioactivity was measured using a liquid scintillation counter. Equilibrium dissociation constants (Kd) were determined from saturation isotherms using PRISM software version 5.0 (GraphPad Software Inc, San Diego, CA, USA). The Ki values were calculated from the IC50, using the equation of Cheng and Prusoff by PRISM software version 5.0.

[3] = molecular target: T3, TP A160T mutant (nsSNP variant) (Homo sapiens, UniProt P21731, A160T)
T3 construct: expressed in transfected cells; HEK293T (calcium assays)
T3 sequence (P21731 1-343 A160T): T1 sequence (P21731 1-343 F115A/A160V) with A115F, V160T
Description: as §1, §2

[4] = molecular target: T4, TP V110A mutant (Homo sapiens, UniProt P21731, V110A)
T4 construct: expressed in transfected cells; HEK293T (calcium assays)
T4 sequence (P21731 1-343 V110A): T1 sequence (P21731 1-343 F115A/A160V) with V110A, A115F, V160A
Description: as §1, §2

[5] = molecular target: T5, TP A160V mutant (Homo sapiens, UniProt P21731, A160V)
T5 construct: expressed in transfected cells; HEK293T (calcium assays)
T5 sequence (P21731 1-343 A160V): T1 sequence (P21731 1-343 F115A/A160V) with A115F
Description: as §1, §2

O=C(O)CCC/C=C\C[C@@H]1[C@H](CNNC(=O)Nc2ccccc2)[C@H]2CC[C@@H]1O2 [SQ 29,548]
Bmax, binding maximum of the ligand SQ 29,548 for the receptor [1]: 2.1 ± 0.4 pmol/mg | Bmax, binding maximum of the ligand SQ 29,548 for the receptor [2]: 1.6 ± 0.3 pmol/mg | Bmax, binding maximum of the ligand SQ 29,548 for the receptor [3]: 1.8 ± 0.4 pmol/mg | Bmax, binding maximum of the ligand SQ 29,548 for the receptor [4]: 1.8 ± 0.3 pmol/mg | Bmax, binding maximum of the ligand SQ 29,548 for the receptor [5]: 1.9 ± 0.3 pmol/mg
